Biological target: cAMP-dependent protein kinase catalytic subunit alpha (Bos taurus, UniProt P00517)
Test: PKA In Vitro Enzyme Assay
Settings: pH 7.2; 22 °C
Description: The recombinant alpha catalytic subunit of bovine PKA was assayed with a peptide substrate and test compound in the presence of 40 uM ATP/ [gamma-33P]ATP in 96-well plates. […] IC50 values were determined from an eight-point concentration range run in duplicate and calculated in GraphPad Prism 4.00.

**Q.** Cc1n[nH]c2ccc(-c3cncc(OC[C@@H](N)Cc4c[nH]c5ccccc45)c3)cc12 [5-{5-[(2S)-2-amino-3-(1H-indol-3-yl)propoxy]pyridin-3-yl}-3-methyl-1H-indazole] was tested. Which IC50 did it give?
**A.** 0.027 µM

— BindingDB's records for doi:10.1016/j.jmb.2007.01.004 (Astex Therapeutics, 2007)
